This passage reports Ratio Ki and Ki results from ChEMBL document CHEMBL3867476, “Novel 5-substituted 3-hydroxyphenyl and 3-nitrophenyl ethers of S-prolinol as α4β2-nicotinic acetylcholine receptor ligands” (Bioorg Med Chem Lett, 2016).

In one assay the test system is HEK243. As to the kind of experiment: Selectivity ratio of Ki for human alpha3beta4-nACHR expressed in […] cells to Ki for alpha4beta2-nACHR in rat cerebral cortex membranes. Type of assay: cell-based.
In assay [1] the target is Neuronal acetylcholine receptor; alpha3/beta4 (Homo sapiens, UniProt P30926+P32297). The assay can be described thus: Displacement of [3H]-epibatine from human alpha3beta4-nACHR expressed in […] cell membranes preincubated for 5 mins followed by overnight incubation with [3H]-epibatine by liquid scintillation counting analysis. On the technique in general: Loss of bound radioactivity is the signal in a displacement assay; it reports binding, not function.
Sequence of Neuronal acetylcholine receptor; alpha3/beta4 (P30926 whole entry): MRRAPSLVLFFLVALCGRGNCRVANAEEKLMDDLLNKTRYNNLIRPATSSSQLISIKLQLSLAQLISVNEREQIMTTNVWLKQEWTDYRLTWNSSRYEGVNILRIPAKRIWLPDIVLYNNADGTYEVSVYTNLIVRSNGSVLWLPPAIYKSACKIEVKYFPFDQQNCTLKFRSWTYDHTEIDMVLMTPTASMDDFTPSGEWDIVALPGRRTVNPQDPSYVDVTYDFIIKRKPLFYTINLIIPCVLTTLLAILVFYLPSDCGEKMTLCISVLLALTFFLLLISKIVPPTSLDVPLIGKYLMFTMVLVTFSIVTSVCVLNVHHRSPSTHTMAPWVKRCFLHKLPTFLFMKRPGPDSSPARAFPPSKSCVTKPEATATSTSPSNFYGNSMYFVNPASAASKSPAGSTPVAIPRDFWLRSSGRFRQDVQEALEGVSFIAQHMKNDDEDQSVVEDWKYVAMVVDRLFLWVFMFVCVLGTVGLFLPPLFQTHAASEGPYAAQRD
Sequence of Neuronal acetylcholine receptor; alpha3/beta4 (P32297 whole entry): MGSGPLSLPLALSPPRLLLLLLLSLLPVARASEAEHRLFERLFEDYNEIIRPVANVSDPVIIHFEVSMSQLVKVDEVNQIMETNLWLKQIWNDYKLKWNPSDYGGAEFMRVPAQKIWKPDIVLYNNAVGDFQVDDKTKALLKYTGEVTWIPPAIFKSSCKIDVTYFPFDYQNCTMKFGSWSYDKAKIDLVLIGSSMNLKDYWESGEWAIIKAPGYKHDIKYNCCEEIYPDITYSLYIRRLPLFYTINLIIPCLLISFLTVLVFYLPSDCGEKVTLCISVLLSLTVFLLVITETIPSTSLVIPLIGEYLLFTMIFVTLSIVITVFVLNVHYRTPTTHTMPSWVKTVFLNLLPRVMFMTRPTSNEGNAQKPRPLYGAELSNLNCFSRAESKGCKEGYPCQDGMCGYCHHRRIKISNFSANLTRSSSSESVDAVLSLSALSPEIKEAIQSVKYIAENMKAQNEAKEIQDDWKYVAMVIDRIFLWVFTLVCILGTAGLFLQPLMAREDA

Assay [2] concerns the target T1, Neuronal acetylcholine receptor; alpha4/beta2 (Rattus norvegicus, UniProt P09483+P12390). The assay can be described thus: Displacement of [3H]-epibatidine from alpha4beta2-nACHR in rat cerebral cortex membranes preincubated for 30 mins followed by overnight incubation with [3H]-epibatine. It counts as cell membranes, Membrane.
Assay [3] has as its target T1, Neuronal acetylcholine receptor; alpha4/beta2. The assay can be described thus: Displacement of [3H]-cytisine from alpha4beta2-nACHR in rat whole brain membranes incubated for 60 mins. Type of assay: cell membranes, Membrane.

T1 sequence (P09483 whole entry): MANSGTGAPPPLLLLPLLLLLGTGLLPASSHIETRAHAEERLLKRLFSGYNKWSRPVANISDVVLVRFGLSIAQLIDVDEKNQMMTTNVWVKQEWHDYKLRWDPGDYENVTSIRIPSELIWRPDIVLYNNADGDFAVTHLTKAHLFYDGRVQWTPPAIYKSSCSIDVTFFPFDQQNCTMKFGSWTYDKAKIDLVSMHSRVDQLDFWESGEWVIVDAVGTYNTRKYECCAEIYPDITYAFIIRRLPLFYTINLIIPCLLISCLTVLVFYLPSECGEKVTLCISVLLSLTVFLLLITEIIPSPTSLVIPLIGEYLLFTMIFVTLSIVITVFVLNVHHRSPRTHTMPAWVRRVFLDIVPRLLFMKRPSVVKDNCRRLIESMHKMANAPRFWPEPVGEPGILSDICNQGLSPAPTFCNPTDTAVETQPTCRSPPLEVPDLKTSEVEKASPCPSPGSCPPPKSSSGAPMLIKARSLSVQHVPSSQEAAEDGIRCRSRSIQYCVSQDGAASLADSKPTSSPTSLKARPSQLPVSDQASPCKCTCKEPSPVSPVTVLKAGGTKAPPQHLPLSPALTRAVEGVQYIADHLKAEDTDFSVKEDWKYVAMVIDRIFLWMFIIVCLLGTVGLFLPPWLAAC
T1 sequence (P12390 whole entry): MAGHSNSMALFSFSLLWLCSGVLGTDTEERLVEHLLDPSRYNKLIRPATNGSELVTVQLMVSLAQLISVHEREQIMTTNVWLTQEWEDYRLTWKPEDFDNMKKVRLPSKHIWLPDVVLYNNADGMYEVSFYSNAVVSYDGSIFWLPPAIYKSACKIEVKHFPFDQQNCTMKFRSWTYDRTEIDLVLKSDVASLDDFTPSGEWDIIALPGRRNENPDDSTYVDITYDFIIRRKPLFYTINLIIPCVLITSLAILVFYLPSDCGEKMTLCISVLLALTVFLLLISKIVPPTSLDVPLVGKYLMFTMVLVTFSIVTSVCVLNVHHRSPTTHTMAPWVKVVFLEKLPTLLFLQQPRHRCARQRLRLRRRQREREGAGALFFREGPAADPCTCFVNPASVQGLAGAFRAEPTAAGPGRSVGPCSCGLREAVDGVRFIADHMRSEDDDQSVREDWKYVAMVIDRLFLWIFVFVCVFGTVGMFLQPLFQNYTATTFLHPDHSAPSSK

Take `CN1CCC[C@H]1COc1cc(Br)cc([N+](=O)[O-])c1`: in the assay with HEK243, the Ratio Ki stood at 8. Besides, the Ki in assay [1] was 415 nM; in assay [2], 55 nM.
The matching figures for `CN1CCC[C@H]1COc1cc(-c2ccc(O)cc2)cc([N+](=O)[O-])c1`: 10, 122 nM and 12 nM.
The matching figures for `CN1CCC[C@H]1COc1cccc(C#CCCCCO)c1`: 2, 8300 nM and 4400 nM.
For the molecule `CN1CCC[C@H]1COc1cc(-c2ccccc2)cc([N+](=O)[O-])c1`, the Ratio Ki in the assay on HEK243 was 3. Further, the inhibition constant Ki is 947 nM in assay [1] and 330 nM in assay [2].
The matching figures for `CN1CCC[C@H]1COc1cc(C#CCCCCO)cc([N+](=O)[O-])c1`: 85, 1200 nM and 14.2 nM.
In the case of `CN1CCC[C@H]1COc1cc(O)cc(C#CCCCCO)c1`, in the assay with HEK243, the Ratio Ki amounted to 131. For the same molecule, the Ki in assay [1] amounted to 3100 nM; in assay [2], 23.7 nM.
The corresponding values for `CN1CCC[C@H]1COc1cc(O)cc(-c2ccccc2)c1` are 0.4, 200 nM and 528 nM.
The corresponding values for `COc1cccc(OC[C@@H]2CCCN2C)c1` are 7, 4500 nM and 600 nM.
As for `CN1CCC[C@H]1COc1cccc([N+](=O)[O-])c1`, the inhibition constant (Ki) in assay [3] is 9 nM; in assay [1], 946 nM; in assay [2], 31.2 nM. Further, in the assay on HEK243, the Ratio Ki amounted to 30.
With `CN1CCC[C@H]1COc1cc(O)cc(-c2ccc(O)cc2)c1`, in the assay on HEK243, the Ratio Ki worked out at 8. Besides, the inhibition constant Ki was found to be 30 nM in assay [1] and 3.8 nM in assay [2].
The corresponding values for `CN1CCC[C@H]1COc1cc(O)cc(Br)c1` are 0.8, 147 nM and 186 nM.

By Ki is commonly meant a dissociation constant, usually derived from enzyme kinetics or from competition with a known ligand.
